Assays:
pERK in NCI-H358 cells = test: Cell-based pERK HTRF assay; conditions: Homo sapiens, NCI-H358, 0.5 h, 30 min incubation, read-out: pERK in NCI-H358 cell inhibition IC50
Outline: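 Cells seeded at 4×10^4/well in RPMI with 10% FBS, then next day treated for 30 min with a 9-point, 3-fold series from 75 μM top concentration at 0.25% DMSO. Lysates were read for pERK by HTRF (d2/Eu cryptate antibodies) after 4–24 h at room temperature, emission at 615 nm.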

[1] = biological target: T1, GppNHp-loaded KRAS4b (amino acids 1-169) G12C/C118S protein (Homo sapiens, UniProt P01116, C118S/G12C); test: Covalent cysteine 12 modification by MALDI-TOF MS, GppNHp-loaded KRAS G12C; assay type: binding; conditions: 15 minutes reaction time point
T1 construct: KRAS4b (amino acids 1-169) G12C/C118S protein; made in house
Outline: (§1)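 KRAS4b 1-169 G12C/C118S loaded with GDP, GppNHp or GTP was used at 1 μM in 20 mM HEPES, 150 mM NaCl, 1 mM MgCl2, pH 7.3, and incubated with compound (5 mM DMSO stock) at room temperature in the dark. % modification at 15 min is adduct peak height over total protein peak heights by linear-mode MALDI-TOF.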

[2] = biological target: T2, Avi-KRAS G12C (1-169) GppNHp/RAF1 RBD-3×FLAG (52-151) (Homo sapiens, UniProt P01116, G12C); test: Raf1 RBD-KRAS G12C-GppNHp disruption (protein:protein interaction HTRF assay); assay type: biochemical
T2 construct: Avi-KRAS G12C (1-169) GppNHp/RAF1 RBD-3×FLAG (52-151)
Outline: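 HTRF measuring disruption of 50 nM Avi-KRAS G12C (1-169) loaded with GppNHp binding RAF1 RBD-3×FLAG (52-151), in pH 7.5 Tris buffer with 5 mM MgCl2, 0.1% BSA, 10% DMSO. KRAS preincubated with compound 1 h, then RBD 1 h, then detection reagents 1 h, all at room temperature. Compound titration 30-0.02 μM; activity expressed as percent of DMSO control.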

[3] = biological target: T3, GDP-loaded KRAS4b (amino acids 1-169) G12C/C118S protein (Homo sapiens, UniProt P01116, C118S/G12C); test: Covalent cysteine 12 modification by MALDI-TOF MS, GDP-loaded KRAS G12C; assay type: binding; conditions: 15 minutes reaction time point
T3 construct: KRAS4b (amino acids 1-169) G12C/C118S protein; made in house
Outline: as §1

[4] = biological target: T4, GTP-loaded KRAS4b (amino acids 1-169) G12C/C118S protein (Homo sapiens, UniProt P01116, C118S/G12C); test: Covalent cysteine 12 modification by MALDI-TOF MS, GTP-loaded KRAS G12C; assay type: binding; conditions: 15 minutes reaction time point
T4 construct: KRAS4b (amino acids 1-169) G12C/C118S protein; made in house
Procedure: Reaction: 1 μM of GppNHp-, GTP-, or GDP-loaded KRAS4b (amino acids 1-169) G12C/C118S protein (produced in-house by Protein Expression Laboratory, FNLCR/Leidos Biomed) in 20 mM 4-(2-hydroxyethyl)-1-piperazineethanesulfonic acid (HEPES) buffer containing 150 mM NaCl, 1 mM MgCl2, pH 7.3 was prepared freshly before assay. Ten-μL aliquots of protein were dispensed onto low volume 384-well plate, then 375 nL DMSO, and 25 nL of tested compounds from 5 mM DMSO stocks were added to appropriate wells using ECHO 555 acoustic liquid handler (Labcyte Inc.). For each reaction/assay, three blanks were prepared by mixing 10 μL of protein solution with 400 nL DMSO. The contents of the wells were carefully mixed by aspiration, and then each plate was sealed with an adhesive cover, centrifuged at 2000 g for 1 minute, and kept in the dark at room temperature until 5 min, 15 min, 30 min, or 2 h collections.
Target pretreatment: Before each assay MALDI target (Bruker MPT 384 ground steel BC) was pre-treated by pipetting on each spot 0.75 μL of saturated sinapinic acid in acetonitrile (ACN).
Sample preparation: At collection time point, 2 μL of reaction mixtures were pipetted out into 20 μL MALDI matrix solution (saturated solution of sinapinic acid in 1:1 ACN:water solution containing 0.75% trifluoroacetic acid (TFA)) deposited on 384 well polypropylene plate. Resulting solution was mixed by aspiration, centrifuged at 2000 g for 1 minute, then 1 μL aliquots were dispensed on pre-treated MALDI target using Beckman Coulter Biomek FXP 96/384-Span-8 Laboratory Automation Workstation. Finally, the MALDI target was dried under mild vacuum to produce spots with fine crystalline structure.
Measurements: MALDI-TOF measurements were performed on a Bruker Daltonics rapiflex Tissuetyper TOF-TOF mass spectrometer using linear mode and mass range from 18.6 to 21.6 kDa. Detector gain was set to 3.3× (483 V), sample rate to 5 GS/s, real time smoothing to medium (175 MHz), laser smart beam pattern was set to: “MS Thin Layer M5”, and the laser frequency was 10000 Hz. Spectra were automatically collected using custom Auto Xecute method. Laser power was auto adjusted using fuzzy control. The peak selection range was set to be between 19000 and 21500 Da. Peak evaluation uses half width parameter set to be smaller than 40 Da for processed spectrograms (centroid peak detection; smoothed by SavitzkyGolay algorithm using 7 m/z width and 2 cycles; baseline was subtracted using median algorithm with flatness 1 and median level 0.01). Fuzzy control used Proteins/Oligonucleotides protocol with minimum half width 1/10 times above threshold. Up to 40000 satisfactory shots were collected in 10000 shot steps. Dynamic termination was implemented to finish data collection when peak signal/noise ratio was reaching value of 50.
Spectra processing: Spectra were smoothed by SavitzkyGolay algorithm using 7 m/z width and three cycles. Centroid peak detection algorithm was used with signal to noise threshold set to 6, relative intensity threshold 4%, peak width 10 m/z and median baseline subtraction using flatness of 1 and median level of 0.01. Peak intensity and area under the peak were evaluated and recorded for all peaks between 19,300 Da and 21,550 Da.
Calculation of percent modification: Percent modification was calculated as a ratio of peak height for protein modified by compound to sum of peak height of remaining protein plus peak height for protein modified by compound. If multiple modifications were observed each was calculated as a ratio of peak height for given modification versus sum of peak heights for all observed protein species. Data reported in Table 5 are from 15 minutes reaction time point.

| SMILES | IC50 (pERK in NCI-H358 cells) [nM] | GppNHp-KRAS G12C percent of modification [1] | IC50 [2] [nM] | GDP-KRAS G12C percent of modification [3] | GTP-KRAS G12C percent of modification [4] |
| --- | --- | --- | --- | --- | --- |
| C=CC(=O)N1C[C@@H](F)[C@@H](Oc2nc(OC[C@@]34CCCN3C[C@H](F)C4)nc3cc(-c4ccc(F)c5sc(N)nc45)c(C(F)(F)F)cc23)C1 [Compound 58] | ≤ 100 | A (percent of modification ≥70%) | ≤ 500 | A (percent of modification ≥70%) | B (50≤percent of modification <70%) |
| C=CC(=O)N1C[C@H](Oc2nc(OC[C@@]34CCCN3C[C@H](F)C4)nc3cc(-c4ccc(F)c5sc(N)nc45)c(C(F)(F)F)cc23)[C@@H](F)C1 [Compound 59] | ≤ 100 | B (50≤percent of modification <70%) | ≤ 500 | A (percent of modification ≥70%) | C (10%≤modification <50%) |
| C=CC(=O)N1CC[C@@H](Oc2nc(OC[C@@]34CCCN3C[C@H](F)C4)nc3cc(-c4ccc(F)c5sc(N)nc45)c(C(F)(F)F)cc23)[C@H]1C [Compound 60] | ≤ 100 | B (50≤percent of modification <70%) | ≤ 500 | A (percent of modification ≥70%) | C (10%≤modification <50%) |
| C=CC(=O)N1CCC(Oc2nc(OC[C@@]34CCCN3C[C@H](F)C4)nc3c(F)c(-c4ccc(F)c5sc(N)c(C#N)c45)c(C(F)(F)F)cc23)C1(C)C (stereo partly drawn) [Compound 61] | ≤ 100 | C (10%≤modification <50%) | ≤ 500 | C (10%≤modification <50%) | C (10%≤modification <50%) |
| C=CC(=O)N1CC[C@@H](Oc2nc(OC[C@@]34CCCN3C[C@H](F)C4)nc3c(F)c(-c4ccc(F)c5sc(N)c(C#N)c45)c(C(F)(F)F)cc23)[C@H]1C [Compound 62, 4-(4-(((2R,3R)-1-acryloyl-2-methylpyrrolidin-3-yl)oxy)-8-fluoro-2-(((2R,7aS)-2-fluorotetrahydro-1H-pyrrolizin-7a (5H)-yl)methoxy)-6-(trifluoromethyl)quinazolin-7-yl)-2-amino-7-fluorobenzo[b]thiophene-3-carbonitrile] | ≤ 100 | B (50≤percent of modification <70%) | ≤ 500 | B (50≤percent of modification <70%) | C (10%≤modification <50%) |
| C=CC(=O)N1CC[C@@H](Oc2nc(OC[C@@]34CCCN3C[C@H](F)C4)nc3c(F)c(-c4ccc(F)c5sc(N)c(C#N)c45)c(C(F)(F)F)cc23)[C@H]1CO [Compound 65] | ≤ 100 | A (percent of modification ≥70%) | ≤ 500 | B (50≤percent of modification <70%) | B (50≤percent of modification <70%) |
| C=CC(=O)N1C[C@H](Oc2nc(OC[C@@]34CCCN3C[C@H](F)C4)nc3c(F)c(-c4ccc(F)c5sc(N)nc45)c(C(F)(F)F)cc23)C[C@H]1CO [Compound 66] | ≤ 100 | A (percent of modification ≥70%) | ≤ 500 | A (percent of modification ≥70%) | C (10%≤modification <50%) |
| C=CC(=O)N1C[C@H](Oc2nc(OC[C@@]34CCCN3C[C@H](F)C4)nc3c(F)c(-c4ccc(F)c5sc(N)c(C#N)c45)c(C(F)(F)F)cc23)[C@@H](F)C1 [Compound 67] | ≤ 100 | B (50≤percent of modification <70%) | ≤ 500 | B (50≤percent of modification <70%) | B (50≤percent of modification <70%) |
| C=CC(=O)N1C[C@H](Oc2nc(OC[C@@]34CCCN3C[C@H](F)C4)nc3c(F)c(-c4ccc(F)c5sc(N)c(C#N)c45)ccc23)C[C@H]1C [Compound 68] | 100 to 1000 | A (percent of modification ≥70%) | ≤ 500 | A (percent of modification ≥70%) | C (10%≤modification <50%) |
| C=CC(=O)N1C[C@H](Oc2nc(OC[C@@]34CCCN3C[C@H](F)C4)nc3c(F)c(-c4ccc(F)c5sc(N)nc45)c(C(F)(F)F)cc23)C[C@@H]1CO [Compound 69] | ≤ 100 | A (percent of modification ≥70%) | ≤ 500 | A (percent of modification ≥70%) | C (10%≤modification <50%) |
| C=CC(=O)N1C[C@@H](F)[C@@H](Oc2nc(OC[C@@]34CCCN3C[C@H](F)C4)nc3c(F)c(-c4ccc(F)c5sc(N)c(C#N)c45)ncc23)C1 [Compound 70] | ≤ 100 | A (percent of modification ≥70%) | ≤ 500 | A (percent of modification ≥70%) | B (50≤percent of modification <70%) |
| C=CC(=O)N1CC[C@@H](Oc2nc(OC[C@@]34CCCN3C[C@H](F)C4)nc3c(F)c(-c4ccc(F)c5sc(N)c(C#N)c45)c(C(F)(F)F)cc23)[C@H]1CF [Compound 71] | ≤ 100 | C (10%≤modification <50%) | ≤ 500 | C (10%≤modification <50%) | D (percent of modification <10%) |

— patent publication US20250188085A1, “COMPOSITIONS AND METHODS FOR INHIBITION OF RAS” (THERAS, INC., priority 2022, published 2025)
